{
  "source": "patent US9856232B1",
  "about": "“Dihydropyrimidinone derivatives” (KING SAUD UNIVERSITY, priority 2017, dated 2018)",
  "type_in_all_cases": "in vivo, Albino Wistar rats",
  "key": {"[1]": {"system": "Hypothermic restraint stress-induced intraluminal bleeding and gastric lesion", "experiment": "Hypothermic restraint stress-induced ulcers", "parameters": "Gastric Lesion Ulcer Index: scale not given here", "conditions": "50 mg/kg; hypothermic restraint 3 h; mean ± SE"}, "[2]": {"system": "Indomethacin-induced gastric mucosal lesions", "experiment": "Gastric lesions induced by Indomethacin", "parameters": "scale not given here", "conditions": "50 mg/kg, i.p; 30 min before Indomethacin 30 mg/kg; mean ± SE", "description": "Albino Wistar rats of either sex, approximately the same age, weighing 150 to 200 g and fed on a diet of standard chow were used in this study. They were randomly divided into experimental groups of six rats each. […] The rats were sacrificed, and the stomachs removed and opened along the greater curvature, After washing with saline, the gastric lesions were quantified by a person unaware of the treatments. The animal study protocol was approved by the Research and Ethics Committee of the Experimental Animal Care Society, College of Pharmacy, King Saud University, Riyadh, Saudi Arabia.\nGastric lesions induced by Indomethacin: Indomethacin was suspended in 1.0% carboxymethylcellulose (CMC) in water (6 mg/mL) and administered orally to the 36 hour fasted rats at a dose of 30 mg/kg body weight. Control rats were treated similarly with an equivalent amount of vehicle. […] The animals were sacrificed 6 hours after treatment. The stomachs were excised, rinsed with normal saline and examined for ulceration. Table 3 provides the effect of compounds on Indomethacin-induced gastric mucosal lesions (mean±SE)."}, "[3]": {"system": "Gastric lesions induced by necrotizing agents (80% ethanol, 0.2 mol/L NaOH or 25% NaCl)", "experiment": "Gastric lesions induced by necrotizing agents (cytoprotection)", "conditions": "50 mg/kg, i.p; 30 min before necrotizing agent; mean ± SE"}, "[4]": {"system": "gastric wall mucus in stomach tissue, change induced by 80% ethanol", "experiment": "Determination of gastric wall mucus (GWM)", "conditions": "50 mg/kg, i.p; 80% ethanol-treated rats; mean ± SE", "method": "(§1) Albino Wistar rats of either sex, approximately the same age, weighing 150 to 200 g and fed on a diet of standard chow were used in this study. They were randomly divided into experimental groups of six rats each. Compounds (N-1 to N-18) 12.5, 25, and 50 mg/kg were given orally in the anti-ulcer studies and intraperitoneally for gastric secretion evaluation. The rats were sacrificed, and the stomachs removed and opened along the greater curvature, After washing with saline, the gastric lesions were quantified by a person unaware of the treatments. The animal study protocol was approved by the Research and Ethics Committee of the Experimental Animal Care Society, College of Pharmacy, King Saud University, Riyadh, Saudi Arabia.\nDetermination of gastric wall mucus (GWM): Gastric wall mucus was determined according to the modified procedure. The glandular segment of the stomach was separated from the rumen of the stomach, weighed, and transferred immediately to 10 mL of 0.1% w/v Alcian blue solution (in […] sucrose solution buffered with […] sodium acetate at pH 5. Tissue was stained for 2 hours in Alcian blue, and excess dye was removed by two successive rinses with 10 mL of […] sucrose, firstly after 15 minutes and then after 45 minutes. Dye complexed with the gastric wall mucus was extracted with 10 ml of […] magnesium chloride which was intermittently shaken for 1 minute at 30 minute intervals for 2 hours. Four milliliters of blue extract were then vigorously shaken with an equal volume of diethyl ether. The resulting emulsion was centrifuged at 4000 r/min for 10 minutes and the absorbance of the aqueous layer was recorded at 580 nm. The quantity of Alcian blue extracted per gram of wet glandular tissue was then calculated. Table 6 provides the effect of compounds on the change in gastric wall mucus in stomach tissue induced by 80% ethanol (mean±SE)."}, "[5]": {"system": "malondialdehyde in stomach tissue, induced by 80% ethanol", "experiment": "Determination of malondialdehyde (MDA)", "conditions": "dose 50, 80% ethanol-treated rats, mean ± SE", "method": "as §1\nDetermination of malondialdehyde (MDA): The animals were sacrificed 1 hour after ethanol administration. The stomachs were removed and each was homogenized in 0.15 mol/L KCl (at 4° C.) in a Potter-Elvehjem type C homogenizer to give a 10% w/v homogenate. Aliquots of homogenate 1 mL in volume were incubated at 37° C. for 3 hours in a metabolic shaker. Then 1 mL of 10% aqueous TCA was added and mixed. The mixture was then centrifuged at 800 g for 10 minutes. One milliliter of the supernatant was removed and mixed with 1 mL of 0.67% w/v thiobarbituric acid in water and placed in a boiling water bath for 10 minutes. The mixture was cooled and diluted with 1 mL distilled water. The absorbance of the solution was then read at 535 nm. The content of malondialdehyde (nmol/g wet tissue) (index of the magnitude of lipid peroxidation) was then calculated, by reference to a standard curve of malondialdehyde solution. Table 7 provides the effect of compounds on the levels of MDA, NP_SH, and total protein in stomach tissue induced by 80% ethanol (mean±SE)."}, "[6]": {"system": "total protein in stomach tissue, induced by 80% ethanol", "experiment": "Total protein in stomach tissue", "conditions": "dose 50, 80% ethanol-treated rats, mean ± SE"}, "[7]": {"system": "Gastric lesions induced by 80% ethanol", "experiment": "Gastric lesions induced by ethanol (ulcer index by severity scores)", "conditions": "Rattus norvegicus, po, Ranitidine 50 mg/kg, vs 80% EtOH group of the row; read-out: Gastric lesions induced by 80% ethanol, % change", "method": "as §1\nGastric lesions induced by ethanol: Albino rats of either sex weighing between (150-200 g) are divided into groups. The animals were fasted for 24 hours with free access to water. Animals were given test drugs or standard drug. One hour later 1 mL/200 gm of 80% ethanol is administered orally to each animal. The animals were anaesthetized 1 hour latter with anesthetic ether and stomach was incised along the greater curvature and ulceration was scored. The number of ulcers and the length of each ulcer were measured. Ulcer index was calculated using severity scores. The mucosal damage was examined by means of a magnifying glass. For each stomach the mucosal damage was assessed according to the following scoring system: 0.5 redness; 1.0 spot ulcers; 1.5 hemorrhagic streaks; 2.0 ulcers<3, but≦5; 3.0 ulcers>5. Table 1 provides the effect of compounds on gastric lesions induced by 80% ethanol (mean±SE)."}, "[8]": {"system": "gastric secretion in pylorus-ligated Shay rats", "experiment": "Pylorus-ligated rats: gastric secretion, acidity and lesion index", "parameters": "Ulcer Index, pylorus-ligated Shay rats: scale not given here", "conditions": "50 mg/kg, i.p.; 6 h after pylorus ligation; mean ± SE", "method": "as §1\nPylorus-ligated rats: Rats were fasted for 36 hours with access to water ad libitum before pylorus ligation under ether anesthesia was carried out. Care was taken not to cause bleeding or to occlude blood vessels. Compounds (N-3, N-8, N-11, and N-15) were administered intraperitoneally immediately after pylorus ligation. The rats were sacrificed at 6 hours after pylorus ligation. The stomachs were removed, the contents were collected, volumes measured, centrifuged and analyzed for tritratable acidity against […], NaOH at pH 7.0. Table 5 provides the effect of compounds on gastric secretion, acidity, and gastric lesion index in pylorus-ligated Shay rats (mean±SE)."}, "[9]": {"system": "gastric mucosal non-protein sulfhydryls, induced by 80% ethanol", "experiment": "Estimation of non-protein sulfhydryls (NP-SH)", "conditions": "dose 50; stomach tissue, 80% ethanol-treated rats; mean ± SE", "method": "as §1\nEstimation of non-protein sulfhydryls (NP_SH): Gastric mucosal non-protein sulfhydryls were measured according to the method. The glandular part of the stomach was homogenized in ice-cold 0.02 mmol/L ethylenediaminetetraacetic acid (EDTA). Aliquots of 5 mL of the homogenates were mixed in 15 mL test tubes with 4 mL of distilled water and 1 mL of 50% trichloroacetic acid (TCA). The tubes were shaken intermittently for 10 minutes and centrifuged at 3000 r/min. Two milliliters of supernatant were mixed with 4 mL of 0.4 mol/L Tris buffer at pH 8.9. Then 0.1 ML of 5, 5′-dithio-bis (2-nitrobenzoic acid) (DTNB) was added and the sample was shaken. The absorbance was measured within 5 minutes of DTNB addition at 412 nm against a reagent blank."}},
  "note": "Marks after values point to notes of the source that are not given here.",
  "data": [
    {"smiles": "CNC(=C[N+](=O)[O-])NCCSCc1ccc(CN(C)C)o1", "note": "[Ranitidine, reference compound]", "values": [
      {"measurement": "Gastric Lesion Ulcer Index", "setting": "[1]", "value": "9.66 ± 0.95"},
      {"measurement": "Intraluminal Bleeding Score", "setting": "[1]", "value": "0.83 ± 0.30"},
      {"measurement": "Ulcer Index, indomethacin-induced gastric mucosal lesions", "setting": "[2]", "value": "8.50 ± 0.56"},
      {"measurement": "Ulcer Index, 0.2 mol/L NaOH", "setting": "[3]", "value": "1.00 ± 0.36"},
      {"measurement": "Ulcer Index, 25% NaCl", "setting": "[3]", "value": "1.16 ± 0.30"},
      {"measurement": "Ulcer Index, 80% EtOH", "setting": "[3]", "value": "1.50 ± 0.22"},
      {"measurement": "Gastric Wall Mucus", "setting": "[4]", "value": "287.24 ± 10.70***^b μg/g"},
      {"measurement": "MDA", "setting": "[5]", "value": "1.65 ± 0.02***^b nmol/g"},
      {"measurement": "Total Protein", "setting": "[6]", "value": "104.59 ± 1.59***^b g/L"},
      {"measurement": "inhibition in vivo at 50 mg/kg", "setting": "[7]", "value": 73.3, "unit": "%"},
      {"measurement": "Titratable Acidity", "setting": "[8]", "value": "58.88 ± 1.85", "unit": "mEg/L"},
      {"measurement": "Ulcer Index, pylorus-ligated Shay rats", "setting": "[8]", "value": "0.50 ± 0.22"},
      {"measurement": "Volume of Gastric Content", "setting": "[8]", "value": "4.06 ± 0.18", "unit": "mL"},
      {"measurement": "NP-SH", "setting": "[9]", "value": "4.24 ± 0.15**^b nmol/g"}
    ]}
  ]
}
